Where “and” joins values, the source holds several entries; their conditions need not be identical. Identical values can stand only once. Counter-ions that a name gives are not always drawn.
Test system: norepinephrin release in the rat prefrontal cortex
Test: Microdialysis: norepinephrine release in prefrontal cortex after I.P. administration
Format: in vivo
Settings: for NOREPINEPHRIN (% of respective basal), individual animal: 0.3 mg/kg I.P., c2-c9 = R#11,12,18,23,29,30,17,24; for NOREPINEPHRIN (% of respective basal), individual animal / Norepinephrin release, individual animals: hydrochloride; for Norepinephrin release, MEAN / Norepinephrin release, individual animals: 3 mg/kg IP; for Norepinephrin release, MEAN: n = 8; for Norepinephrin release, individual animals: per animal R#15,16,21,22,27,28,09,10
Method: The aim of the study was to evaluate, using microdialysis, the effects of an intraperitoneal (I.P.) administration in rats of three different doses of SON-117 on dopamine and its metabolites, serotonin and its metabolite (5-HIAA), and norepinephrine levels in prefrontal cortex.
Thirty-two adult male Wistar rats were used for the whole study (4 groups of eight animals planned for the study, Table 1).
Surgery was performed on rats weighing about 300 g at the beginning of the experiments. Rats were anaesthetized with Ketamine (50 mg/kg) & Xylazine (15 mg/kg) by intramuscular administration. The animals were placed in a stereotaxic apparatus in the flat-skull position at a constant setting of −3.3 mm between ear bars and the incisor bar. The animals were treated with a local anesthesic (xylocaine 1%, Astra Zeneca) and an analgesic (Temgesic, from Schering Plough, 0.05 mg/kg, s.c.). A rostrocaudal midline incision was made with a lancet to expose the dorsal skull surface. The “stereotaxic zero” was defined by the Bregma in accordance with Paxinos and Watson's atlas (1986). A hole was drilled in the skull with a drill and the meninges were pierced with a sterile needle to implant a CMA12 guide cannula which later received the dialysis probe.
Coordinates used for implanting guide cannula in prefrontal cortex from Bregma were anteroposterior 3.7 mm, mediolateral 0.8 mm, and dorsoventral −2 mm (top of the probe was at −5 mm). The guide cannula was fixed to the skull with two stainless steel screws (1.88 mm outside diameter) anchored. An application of dental cement was added. A plastic collar allowed each animal to be tethered to a Swivel assembly of the CMA 120 awake animal system. Following surgery, rats were kept in individual cages and allowed to recover for a minimum of 3-5 days before the experimentation. The rats were handled and put in plastic bowl for 10 min at least every day to habituate the animals to their new environment for the dialysis. An I.P. administration with saline was also performed every day.
Dialysis probes (CMA12/3 mm, membrane, 20 kD cut-off, Carnegie Medicine, Stockholm, Sweden), were carefully washed before inserting into the guide cannula. The wash was performed with the artificial cerebrospinal fluid (aCSF) medium (NaCl 147 mM, KCl 2.7 mM, CaCl2 1.2 mM, MgCl2 0.85 mM) at room temperature. The dialysis system was then equilibrated at 20° C. at a perfusion rate of 1 μl/min with a Carnegie pump (CMA100). All catheters (FEP tubing, internal volume of 1.2 μl/10 cm, and tubing adaptors) used for microdialysis were treated in the same conditions.
The probes duly prepared were inserted into the guide cannula and the CMA120 Swivel assembly secured to the animal using a plastic collar. Flow through the dialysis probe with aCSF was maintained at a rate of 1 μl/min during the whole experimentation. The first four fractions (corresponding to 2 hours) were discarded to avoid the effects of parenchymal disturbance and to ensure that an approximate steady-state level was reached. Fractions were then collected over a period of 8.5 h during which time the animals remained quiet. The dialysates were automatically collected with an autosampler (microfraction collector CMA 140, Carnegie Medicin) and stored at −80° C. until analysis. […] Perfusion was then maintained for 7 hours with aCSF. The dialysates (30 μl) were collected into 300 μl vials, transferred into dry ice and then kept frozen (−80° C.) until analysis. Frozen samples were shipped to a partner for analysis. At the end of the microdialysis study, a PBS with colored ink was perfused through the probe in order to visualize the dialyzed area.
Catecholamine assay: Concentrations of dopamine, DOPAC, HVA, 5-HIAA, 5-HT, and norepinephrin were determined for each sample by HPLC coupled with electrochemical detection. […]

## Cc1nnc(-c2cc3c(OC[C@@H](O)CN4CCC(c5ccc(Cl)c(Cl)c5)CC4)cccc3o2)o1 [SON-117, (S)-1-(4-(3,4-dichlorophenyl)piperidino)-3-(2-(5-methyl-1,3,4-oxadiazol-2-yl)benzo(b)furan-4-yloxy)-2-propanol hydrochloride]
T0-T30 min
  NOREPINEPHRIN (% of respective basal), individual animal: 93.23 % of respective basal and 109.66 % of respective basal and 94.50 % of respective basal and 91.56 % of respective basal and 103.16 % of respective basal and 122.80 % of respective basal and 169.48 % of respective basal and 88.04 % of respective basal
  Norepinephrin release, MEAN: 95.03 % of respective basal
T30-T1 h
  NOREPINEPHRIN (% of respective basal), individual animal: 104.42 % of respective basal and 107.28 % of respective basal and 98.29 % of respective basal and 99.12 % of respective basal and 108.78 % of respective basal and 113.81 % of respective basal and 113.33 % of respective basal and 88.14 % of respective basal
  Norepinephrin release, MEAN: 97.36 % of respective basal
  Norepinephrin release, individual animals: 88.36 % of respective basal and 115.03 % of respective basal and 81.23 % of respective basal and 99.91 % of respective basal and 84.13 % of respective basal and 101.13 % of respective basal and 112.87 % of respective basal and 96.25 % of respective basal
T1 h 30-T2 h
  NOREPINEPHRIN (% of respective basal), individual animal: 99.20 % of respective basal and 86.76 % of respective basal and 108.98 % of respective basal and 92.71 % of respective basal and 104.84 % of respective basal and 66.21 % of respective basal and 122.80 % of respective basal and 84.63 % of respective basal
  Norepinephrin release, MEAN: 89.60 % of respective basal
  Norepinephrin release, individual animals: 82.12 % of respective basal and 112.19 % of respective basal and 79.22 % of respective basal and 97.76 % of respective basal and 65.77 % of respective basal and 100.10 % of respective basal and 89.95 % of respective basal and 89.72 % of respective basal
T1 h-T1 h 30
  NOREPINEPHRIN (% of respective basal), individual animal: 86.88 % of respective basal and 98.78 % of respective basal and 112.17 % of respective basal and 98.26 % of respective basal and 98.75 % of respective basal and 106.99 % of respective basal and 111.81 % of respective basal and 90.76 % of respective basal
  Norepinephrin release, MEAN: 107.89 % of respective basal
  Norepinephrin release, individual animals: 172.07 % of respective basal and 112.74 % of respective basal and 81.36 % of respective basal and 103.59 % of respective basal and 89.22 % of respective basal and 99.07 % of respective basal and 110.12 % of respective basal and 94.94 % of respective basal
T2 h 30-T3 h
  NOREPINEPHRIN (% of respective basal), individual animal: 84.23 % of respective basal and 104.60 % of respective basal and 128.99 % of respective basal and 92.07 % of respective basal and 101.47 % of respective basal and 118.46 % of respective basal and 126.06 % of respective basal and 98.73 % of respective basal
  Norepinephrin release, MEAN: 89.71 % of respective basal
  Norepinephrin release, individual animals: 86.59 % of respective basal and 101.34 % of respective basal and 74.62 % of respective basal and 92.57 % of respective basal and 76.53 % of respective basal and 86.90 % of respective basal and 101.62 % of respective basal and 97.13 % of respective basal
T2 h-T2 h 30
  NOREPINEPHRIN (% of respective basal), individual animal: 76.65 % of respective basal and 101.56 % of respective basal and 126.15 % of respective basal and 88.09 % of respective basal and 101.06 % of respective basal and 105.86 % of respective basal and 113.08 % of respective basal and 89.61 % of respective basal
  Norepinephrin release, MEAN: 89.42 % of respective basal
  Norepinephrin release, individual animals: 76.71 % of respective basal and 108.71 % of respective basal and 69.68 % of respective basal and 89.57 % of respective basal and 80.18 % of respective basal and 97.07 % of respective basal and 98.74 % of respective basal and 94.71 % of respective basal
T3 h 30-T4 h
  NOREPINEPHRIN (% of respective basal), individual animal: 100.21 % of respective basal and 138.06 % of respective basal and 105.65 % of respective basal and 106.80 % of respective basal and 135.47 % of respective basal and 201.02 % of respective basal and 113.60 % of respective basal
T3 h-T3 h 30
  NOREPINEPHRIN (% of respective basal), individual animal: 120.36 % of respective basal and 139.04 % of respective basal and 95.95 % of respective basal and 93.13 % of respective basal and 129.61 % of respective basal and 137.11 % of respective basal and 99.05 % of respective basal
T4 h 30-T5 h
  NOREPINEPHRIN (% of respective basal), individual animal: 91.48 % of respective basal and 153.66 % of respective basal and 179.53 % of respective basal and 95.60 % of respective basal and 107.83 % of respective basal and 118.17 % of respective basal and 146.73 % of respective basal and 113.45 % of respective basal
T4 h-T4 h 30
  NOREPINEPHRIN (% of respective basal), individual animal: 88.77 % of respective basal and 125.81 % of respective basal and 155.70 % of respective basal and 105.70 % of respective basal and 109.87 % of respective basal and 112.18 % of respective basal and 148.00 % of respective basal and 108.96 % of respective basal
T5 h 30-T6 h
  NOREPINEPHRIN (% of respective basal), individual animal: 91.57 % of respective basal and 160.34 % of respective basal and 198.08 % of respective basal and 89.28 % of respective basal and 123.68 % of respective basal and 111.49 % of respective basal and 183.96 % of respective basal and 124.88 % of respective basal
T5 h-T5 h 30
  NOREPINEPHRIN (% of respective basal), individual animal: 62.74 % of respective basal and 157.36 % of respective basal and 184.76 % of respective basal and 91.16 % of respective basal and 116.17 % of respective basal and 125.90 % of respective basal and 153.13 % of respective basal and 108.22 % of respective basal
T6 h-T6 h 30
  NOREPINEPHRIN (% of respective basal), individual animal: 107.74 % of respective basal and 153.11 % of respective basal and 204.06 % of respective basal and 115.67 % of respective basal and 145.69 % of respective basal and 126.68 % of respective basal
